Measurements from patent US10745401B2, “Condensed lactam derivative” (Sumitomo Dainippon Pharma Co., Ltd., priority 2018, dated 2020).

Experiments:
human 5-HT2A receptor [1] = biological target: T1, human 5-HT2A receptor (Homo sapiens (Human), UniProt P28223); assay: Test 1: binding activity for human 5-HT2A receptor ([3H]Ketanserin, CHO cell membrane fraction)
Experimental: Test 1: Evaluation of Binding Activity for Human 5-HT1A Receptor, Human 5-HT2A Receptor, and Human D2 Receptor
Binding affinity of the present compound for human 5-HT1A receptor, human 5-HT2A receptor, and human D2 receptor was measured by the following procedures.
Each mixture was incubated at room temperature for 60 minutes. Then, the mixture was added quickly on a glassfiber filter plate (Multiscreen FB, Millipore, Inc.) coated with 0.3% aqueous polyethylenimine, and vacuum-filtered. Radioactivity remaining on the filter was measured with a liquid scintillation counter (PerkinElmer, Inc.). Binding inhibition rate was calculated from the following formula.
Ki of each compound was calculated from the following formula. Binding inhibition constant (Ki)=IC50/(1+S/Kd) wherein S is concentration of ligand; Kd is a binding dissociation constant of ligand to membrane, which is calculated from a saturated binding experiment conducted with the same cell membrane. A small Ki value means strong binding ability to a receptor.

human 5-HT2A receptor [2] = biological target: T1, human 5-HT2A receptor; assay: Test 3: antagonist activity for human 5-HT2A receptor (aequorin luminescence, CHO-K1 cells); assay type: cell-based; details: for IC50: CHO-K1 cells, 1 nmol/L 5-HT
Experimental: Test 3: Evaluation of Antagonist Activity for Human 5-HT2A Receptor
Aequorin, Gα16 protein, and each receptor were transiently expressed in CHO-K1 cells (Chinese hamster ovary). […] Each compound dissolved in DMSO was added thereto, and changes in luminescence were measured by FDSS/μCELL functional drug screening system (Hamamatsu Photonics K.K.). Antagonist activity was calculated from the following formula. Antagonist activity (%)=100×{(Luminescence of well in the presence of 1 nmol/L 5-HT−Luminescence of well containing solvent)−(Luminescence of well in the presence of test compound and 1 nmol/L 5-HT−Luminescence of well containing solvent)}/(Luminescence of well in the presence of 1 nmol/L 5-HT−Luminescence of well containing solvent)

human 5-HT1A receptor [3] = biological target: T2, human 5-HT1A receptor (Homo sapiens (Human), UniProt P08908); assay: Test 1: binding activity for human 5-HT1A receptor ([3H]8-OH-DPAT, CHO cell membrane fraction)
Procedure, shortened: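 Membranes incubated with [3H]8-OH-DPAT and compound for 60 min at room temperature, then filtered on polyethylenimine-coated glass-fibre plates and counted by liquid scintillation. IC50 from Hill analysis; Ki = IC50/(1+S/Kd), Kd from saturation binding on the same membranes.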

hERG channel = hERG channel (Homo sapiens (Human), UniProt Q12809); assay: Test 6-1: inhibitory activity for hERG channel (auto patch clamp, Qpatch); assay type: cell-based; details: for IC50: whole cell auto patch clamp, hERG-CHO cells, read-out: hERG inhibition IC50
Procedure, shortened: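 Whole-cell patch clamp on an automated system using CHO cells stably expressing human hERG (IKr); 15 s pulse interval. Four increasing compound concentrations applied cumulatively; mean peak tail current from last 3 stimulations per concentration used. IC50 from inhibition versus pre-compound current, fitted by Hill equation.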

[4] = Test 4: metabolic stability test in human hepatic microsome; assay type: in vitro ADME; details: 0.1 mg/mL microsome, 0.1 μmol/L compound, 37° C., 30 minutes
Procedure, shortened: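 Compound at 0.1 μmol/L incubated 30 min at 37° C with human liver microsomes (0.1 mg/mL) and NADPH (3.2 mmol/L) in 25 mmol/L phosphate buffer, pH 7.4. Residual compound measured by LC-MS; stability (mL/min/mg protein) = −LN(residual ratio)/30/0.1.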

human 5-HT1A receptor [5] = biological target: T2, human 5-HT1A receptor; assay: Test 2: agonist activity for human 5-HT1A receptor ([35S]GTPγS binding); assay type: biochemical; details: for EC50: [35S]GTPγS binding, concentration at which half the activity of Emax was obtained; for Emax at 10 µM: agonist activity in the presence of 10 μM of compound, relative to 100 μmol/L 5-HT
Procedure, shortened: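 Membranes from CHO cells expressing human 5-HT1A incubated with compound, GDP-containing buffer and [35S]GTPγS for 60 min at room temperature. Bound radioactivity collected by glass-fibre filtration and counted by liquid scintillation; agonist activity derived from a formula.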

human D2 receptor = human D2 receptor (Homo sapiens (Human), UniProt P14416); assay: Test 1: binding activity for human D2 receptor ([3H]Spiperone, CHO cell membrane fraction); details: for Ki: human D2 receptor, [3H]Spiperone; for D2 Ki/5-HT1A Ki / D2 Ki/5-HT2A Ki: selectivity ratio
Procedure, shortened: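 CHO-cell membranes with [3H]ketanserin (5-HT2A) or [3H]spiperone (D2) were incubated with compound for 60 min at room temperature, then filtered, and bound radioactivity was counted by scintillation. Ki = IC50/(1+S/Kd), with ligand Kd from saturation binding on the same membranes.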

Chain of hERG channel (Q12809 whole entry): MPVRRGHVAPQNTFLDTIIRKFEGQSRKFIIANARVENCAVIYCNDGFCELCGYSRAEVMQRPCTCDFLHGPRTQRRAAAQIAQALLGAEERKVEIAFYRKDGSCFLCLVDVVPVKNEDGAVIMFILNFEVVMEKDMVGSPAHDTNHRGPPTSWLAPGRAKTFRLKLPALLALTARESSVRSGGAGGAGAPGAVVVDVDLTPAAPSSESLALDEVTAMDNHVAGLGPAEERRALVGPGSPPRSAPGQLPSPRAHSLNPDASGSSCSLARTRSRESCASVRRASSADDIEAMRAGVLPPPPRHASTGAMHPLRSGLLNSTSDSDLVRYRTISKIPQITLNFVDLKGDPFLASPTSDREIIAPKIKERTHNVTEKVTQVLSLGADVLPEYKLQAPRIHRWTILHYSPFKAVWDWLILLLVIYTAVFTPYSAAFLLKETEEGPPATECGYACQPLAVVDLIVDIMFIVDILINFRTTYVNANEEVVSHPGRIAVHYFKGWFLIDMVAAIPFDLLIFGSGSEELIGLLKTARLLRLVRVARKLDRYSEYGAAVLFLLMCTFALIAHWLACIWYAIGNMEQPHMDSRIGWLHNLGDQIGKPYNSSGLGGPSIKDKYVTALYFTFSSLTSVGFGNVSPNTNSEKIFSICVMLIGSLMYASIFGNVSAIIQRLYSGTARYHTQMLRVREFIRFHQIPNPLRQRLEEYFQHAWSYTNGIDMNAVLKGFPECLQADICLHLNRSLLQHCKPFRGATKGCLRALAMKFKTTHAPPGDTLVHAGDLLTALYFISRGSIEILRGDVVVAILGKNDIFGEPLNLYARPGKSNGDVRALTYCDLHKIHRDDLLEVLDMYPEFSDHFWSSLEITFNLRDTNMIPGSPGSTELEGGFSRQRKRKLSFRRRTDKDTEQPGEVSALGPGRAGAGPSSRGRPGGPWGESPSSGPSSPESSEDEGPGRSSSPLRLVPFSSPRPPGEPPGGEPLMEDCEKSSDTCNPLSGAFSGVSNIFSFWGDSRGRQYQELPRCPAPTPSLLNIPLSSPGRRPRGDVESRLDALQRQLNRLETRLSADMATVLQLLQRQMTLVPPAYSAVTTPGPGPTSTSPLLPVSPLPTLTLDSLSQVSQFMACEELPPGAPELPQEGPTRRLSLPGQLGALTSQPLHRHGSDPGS
Chain of human D2 receptor (P14416 whole entry): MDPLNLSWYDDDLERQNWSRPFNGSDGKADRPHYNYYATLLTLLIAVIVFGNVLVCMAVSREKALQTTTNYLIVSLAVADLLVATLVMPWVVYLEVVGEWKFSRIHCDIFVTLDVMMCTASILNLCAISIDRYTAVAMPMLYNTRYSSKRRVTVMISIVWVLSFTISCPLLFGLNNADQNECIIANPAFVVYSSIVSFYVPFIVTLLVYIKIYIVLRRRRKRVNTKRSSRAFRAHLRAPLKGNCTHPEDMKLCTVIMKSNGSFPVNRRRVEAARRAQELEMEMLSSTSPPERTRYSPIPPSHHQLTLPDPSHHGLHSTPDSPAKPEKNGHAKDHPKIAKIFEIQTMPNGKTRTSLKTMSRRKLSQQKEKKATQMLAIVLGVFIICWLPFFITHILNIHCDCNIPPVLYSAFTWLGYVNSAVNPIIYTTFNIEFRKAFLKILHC
T2 sequence (P08908 whole entry): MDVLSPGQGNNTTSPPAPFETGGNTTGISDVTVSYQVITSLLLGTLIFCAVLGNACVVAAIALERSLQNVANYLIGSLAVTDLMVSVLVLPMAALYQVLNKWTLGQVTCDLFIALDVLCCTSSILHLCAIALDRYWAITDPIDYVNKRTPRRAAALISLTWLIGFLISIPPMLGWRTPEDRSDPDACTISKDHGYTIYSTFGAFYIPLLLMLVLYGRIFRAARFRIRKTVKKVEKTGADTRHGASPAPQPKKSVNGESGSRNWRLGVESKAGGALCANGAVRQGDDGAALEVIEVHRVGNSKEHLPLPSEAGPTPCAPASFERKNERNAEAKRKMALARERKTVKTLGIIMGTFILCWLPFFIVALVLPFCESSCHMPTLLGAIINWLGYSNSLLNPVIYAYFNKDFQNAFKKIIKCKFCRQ
T1 sequence (P28223 whole entry): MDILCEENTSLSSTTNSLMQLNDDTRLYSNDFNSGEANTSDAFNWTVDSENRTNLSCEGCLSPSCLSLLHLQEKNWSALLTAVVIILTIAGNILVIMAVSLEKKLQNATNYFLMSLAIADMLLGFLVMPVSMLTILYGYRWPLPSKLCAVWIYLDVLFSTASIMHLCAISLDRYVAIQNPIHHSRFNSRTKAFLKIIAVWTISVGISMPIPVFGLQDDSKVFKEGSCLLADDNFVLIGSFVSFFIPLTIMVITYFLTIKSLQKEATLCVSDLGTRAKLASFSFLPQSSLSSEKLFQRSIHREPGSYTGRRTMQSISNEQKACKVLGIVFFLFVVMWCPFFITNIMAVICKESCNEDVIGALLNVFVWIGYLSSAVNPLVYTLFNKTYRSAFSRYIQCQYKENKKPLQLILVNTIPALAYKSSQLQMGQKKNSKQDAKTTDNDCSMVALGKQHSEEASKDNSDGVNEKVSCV

Compound	Ki (human 5-HT2A receptor [1])	IC50 (human 5-HT2A receptor [2])	Ki (human 5-HT1A receptor [3])	IC50 (hERG channel)	Metabolic stability in human hepatic microsome [4]	EC50 (human 5-HT1A receptor [5])	Emax at 10 µM (human 5-HT1A receptor [5])	IC50 (human 5-HT2A receptor [2]; aequorin luminescence)	Ki (human D2 receptor)	D2 Ki/5-HT1A Ki (human D2 receptor)	D2 Ki/5-HT2A Ki (human D2 receptor)	activity at 10 µM (human 5-HT2A receptor [2]; CHO-K1)	hERG inhibition IC50 (nmol/L)/5-HT1A Ki (nmol/L) (hERG channel; ratio of hERG IC50 to 5-HT1A Ki)	hERG inhibition IC50 (nmol/L)/5-HT2A Ki (nmol/L) (hERG channel; ratio of hERG IC50 to 5-HT2A Ki)
Cn1cnc2c1C(=O)N(CCN1CCN(c3nsc4ccccc34)CC1)CC2 [Example 56]	0.11 nM	6 nM	78 nM	7600 nM	0.195 mL/min/mg protein	66.6 nM	58%	–	–	–	–	–	–	–
COc1ccc2c(C3CCN(CCN4CCc5cccnc5C4=O)CC3)noc2c1 [Example 149]	217 nM	–	184 nM	–	–	719 nM	16%	267 nM	> 10000 nM	>54.3	>46.1	–	–	–
O=C1c2ncccc2CCN1CCN1CCC(c2noc3c(F)cccc23)CC1 [Example 140]	118 nM	–	168 nM	–	–	2300 nM	27%	373 nM	> 10000 nM	>59.5	>84.7	–	–	–
O=C1c2cnccc2CCN1CCN1CCN(c2nsc3ccccc23)CC1 [Example 18]	3.7 nM	36 nM	10.6 nM	5900 nM	0.124 mL/min/mg protein	18 nM	90%	–	–	–	–	–	–	–
O=C1c2ncccc2CCN1CCN1CCC(c2noc3cc(F)c(F)cc23)CC1 [Example 148]	43.2 nM	–	156 nM	–	–	–	–	–	–	–	–	45%	–	–
Cn1ncc2c1CCC(CCN1CCC(c3noc4ccccc34)CC1)C2=O (centres unmarked) [Example 28]	1.4 nM	9.8 nM	13.8 nM	1400 nM	0.017 mL/min/mg protein	7.59 nM	94%	–	–	–	–	–	–	–
Cn1cc2c(n1)CCN(CCN1CCC(c3noc4ccccc34)C1)C2=O (centres unmarked) [Example 174]	71.7 nM	–	78.1 nM	–	–	193 nM	50%	723 nM	> 10000 nM	>128.0	>139.5	–	–	–
O=c1c2cccnc2ccn1CCN1CCN(c2nsc3ccccc23)CC1 [Example 10]	0.49 nM	0.71 nM	20 nM	–	–	119 nM	–	–	–	–	–	–	–	–
O=C1c2cccnc2CCN1CCN1CCC(c2noc3cc(F)ccc23)CC1 [Example 121]	105 nM	–	60.9 nM	< 300 nM	<0.05 mL/min/mg protein	–	–	57.4 nM	–	–	–	–	–	–
O=c1c2cncnc2ccn1CCN1CCC(c2noc3ccccc23)CC1 [Example 129]	20 nM	–	51.4 nM	–	0.084 mL/min/mg protein	370 nM	31%	61.8 nM	–	–	–	–	–	–
O=C1c2ncccc2CCN1CCN1CCC(c2noc3cccc(F)c23)CC1 [Example 141]	173 nM	–	4.16 nM	–	–	30 nM	44%	976 nM	> 10000 nM	>2405.7	>57.8	–	–	–
COc1ccc2onc(C3CCN(CCN4CCc5cccnc5C4=O)CC3)c2c1 [Example 142]	164 nM	–	1.83 nM	–	–	8.8 nM	54%	3910 nM	> 10000 nM	>5452.0	>61.0	–	–	–
Cn1cnc2c1CCCN(CCN1CCC(c3noc4ccccc34)CC1)C2=O [Example 101, 5-{2-[4-(1,2-Benzoisoxazol-3-yl)piperidin-1-yl]ethyl}-1-methyl-5,6,7,8-tetrahydroimidazo[4,5-c]azepin-4(1H)-one]	1.9 nM	46 nM	60.1 nM	4100 nM	–	612 nM	47%	–	1020 nM	17	538	–	68	2165
CC(C)c1ncc2c(n1)CCN(CCN1CCN(c3nsc4ccccc34)CC1)C2=O [Example 180]	4.28 nM	–	32.2 nM	–	0.469 mL/min/mg protein	1260 nM	37%	72.7 nM	1560 nM	48.3	363.5	–	–	–
Cc1ncc2c(=O)n(CCN3CCN(c4noc5ccccc45)CC3)ccc2n1 [Example 193, 6-{2-[4-(1,2-Benzoisoxazol-3-yl)piperazin-1-yl]ethyl}-2-methylpyrido[4,3-d]pyrimidin-5(6H)-one]	122 nM	–	387 nM	–	–	756 nM	27%	143 nM	> 10000 nM	>25.8	>81.7	–	–	–
O=c1c2cnc(C(F)(F)F)cc2ccn1CCN1CCN(c2noc3ccccc23)CC1 [Example 173]	22.8 nM	–	38.6 nM	–	–	40.8 nM	50%	184 nM	> 10000 nM	>259.1	>438.0	–	–	–
O=C1c2ncccc2CCN1CCN1CCN(c2noc3ccc(F)cc23)CC1 [Example 147]	124 nM	–	124 nM	–	–	436 nM	–	415 nM	> 10000 nM	–	–	–	–	–
Cc1cccc2c(C3CCN(CCN4CCc5cccnc5C4=O)CC3)noc12 [Example 120]	91 nM	–	340 nM	–	–	630 nM	–	912 nM	> 10000 nM	–	–	–	–	–
